# Tests used:
# Test in all cases: relative viability (nuclei count vs DMSO), 5 days (fraction); higher = more cells survive
# [1] = compound: Cc1ccc2nc(NCCN)c3ncc(C)n3c2c1 + COc1cccc2cc(-c3nc([C@H]4CC[C@H](C(=O)O)CC4)n4ncnc(N)c34)[nH]c12 [OSI-027] (partner 0.5 µM)
# How it was run: (§1)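 Lung cancer cell lines in 1536-well plates were dosed by pin tool the day after seeding, either with one drug alone or with a fixed anchor-drug dose plus five library-drug doses (not always all listed) in √10 steps. After 5 days, cells were fixed and their nuclei stained in one step (final 0.05% Triton X-100, 1% formaldehyde, 1 ug/ml Hoechst), then counted on 4× images. Relative viability is the nuclei count in treated wells divided by that in vehicle wells. Values are medians of duplicate plates.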
# [2] = compound: Cc1ccc2nc(NCCN)c3ncc(C)n3c2c1 + Cc1cc(Nc2cc(N3CCN(C)CC3)nc(Sc3ccc(NC(=O)C4CC4)cc3)n2)n[nH]1 [Tozasertib] (partner 0.1 µM)
# How it was run: as §1
# [3] = compound: Cc1ccc2nc(NCCN)c3ncc(C)n3c2c1 + NC(=O)Nc1cc(-c2cccc(F)c2)sc1C(=O)N[C@H]1CCCNC1 [AZD7762] (partner 0.2 µM)
# How it was run: as §1
# Salubrinal + Alpelisib = compound: O=C(/C=C/c1ccccc1)NC(NC(=S)Nc1cccc2cccnc12)C(Cl)(Cl)Cl [Salubrinal] + Cc1nc(NC(=O)N2CCC[C@H]2C(N)=O)sc1-c1ccnc(C(C)(C)C(F)(F)F)c1 [Alpelisib] (partner 2 µM)
# How it was run: as §1
Cell Line,relative viability ([1]; first compound 0.04 µM),relative viability ([1]; first compound 0.1265 µM),relative viability ([1]; first compound 0.4 µM),relative viability ([1]; first compound 1.265 µM),relative viability ([1]; first compound 4 µM),relative viability ([2]; first compound 0.04 µM),relative viability ([2]; first compound 0.1265 µM),relative viability ([2]; first compound 0.4 µM),relative viability ([2]; first compound 1.265 µM),relative viability ([2]; first compound 4 µM),relative viability ([3]; first compound 0.04 µM),relative viability ([3]; first compound 0.1265 µM),relative viability ([3]; first compound 0.4 µM),relative viability ([3]; first compound 1.265 µM),relative viability ([3]; first compound 4 µM),relative viability (Salubrinal + Alpelisib; first compound 0.08 µM),relative viability (Salubrinal + Alpelisib; first compound 0.253 µM),relative viability (Salubrinal + Alpelisib; first compound 0.8 µM),relative viability (Salubrinal + Alpelisib; first compound 2.53 µM),relative viability (Salubrinal + Alpelisib; first compound 8 µM)
NCI-H838,0.462,0.397,0.445,0.385,0.398,0.259,0.287,0.278,0.304,0.26,1.05,0.932,0.914,0.858,0.874,1.03,0.629,0.969,1.01,0.942
NCI-H1355,0.447,0.447,0.335,0.384,0.404,0.565,0.517,0.611,0.546,0.553,0.75,0.685,0.72,0.644,0.763,0.955,0.942,0.884,0.852,0.779
NCI-H1395,0.672,0.67,0.558,0.767,0.655,0.754,0.763,0.661,0.655,0.795,0.409,0.435,0.43,0.422,0.398,1.19,1.39,0.999,1.08,0.911
NCI-H1437,1,0.871,0.886,0.879,0.884,0.412,0.399,0.39,0.364,0.368,1.08,1.12,1.16,0.901,1.04,1.12,0.782,1.15,0.94,0.969
NCI-H1651,0.787,0.708,0.681,0.613,0.604,0.625,0.71,0.652,0.677,0.718,0.536,0.511,0.409,0.46,0.445,1.02,0.565,1.07,,1.02
NCI-H1666,0.839,0.799,0.887,0.816,0.774,0.665,0.676,0.677,0.502,0.544,0.903,0.961,0.774,0.756,0.841,0.985,0.791,0.923,1.01,0.993
NCI-H1734,0.619,0.557,0.502,0.551,0.543,0.275,0.258,0.211,0.237,0.243,0.573,0.596,0.517,0.559,0.546,0.721,0.695,0.833,0.737,0.749
NCI-H1755,0.77,0.738,0.718,0.72,0.655,0.552,0.565,0.536,0.511,0.524,0.476,0.45,0.492,0.435,0.433,1.04,0.795,1.01,0.948,0.893
NCI-H1793,0.305,0.314,0.236,0.317,0.29,0.603,0.375,0.371,0.32,0.375,0.506,0.411,0.361,0.39,0.417,1,0.722,0.837,0.798,0.617
NCI-H1915,0.641,0.605,,0.696,0.594,0.481,0.492,,0.432,0.416,0.646,0.702,0.551,0.728,0.704,1.06,1.08,1.11,1.06,1.04
NCI-H1944,0.391,0.376,0.341,0.443,0.403,0.256,0.248,0.246,0.241,0.253,0.48,0.64,0.456,0.351,0.498,0.912,0.912,0.871,0.871,0.795
NCI-H1975,0.709,0.692,0.711,0.716,0.523,0.818,0.866,0.824,0.639,0.56,0.791,0.73,0.672,0.66,0.595,0.713,0.467,0.766,0.674,0.579
NCI-H1993,0.521,0.53,0.544,0.562,0.508,0.602,0.593,0.543,0.566,0.581,0.937,0.875,0.554,0.727,0.625,0.62,0.595,0.735,0.688,0.676
NCI-H2085,0.839,0.819,0.658,0.906,0.742,0.801,0.765,0.881,0.703,0.802,1.06,0.996,0.916,0.952,1,1.09,0.879,0.923,0.936,0.981
NCI-H2087,0.648,0.595,0.478,0.703,0.501,0.282,0.222,0.288,0.204,0.179,1.35,1.25,1.27,1.28,1.26,1.14,0.861,1.05,1.33,1.09
NCI-H2126,0.724,0.733,0.661,0.667,0.646,0.955,0.857,0.869,0.852,0.734,1.12,1.01,0.965,1.14,0.936,0.808,0.767,0.812,0.727,0.725
NCI-H2170,0.737,0.737,0.657,0.715,0.701,0.755,0.625,0.694,0.671,0.679,0.874,0.897,0.821,0.761,0.845,0.883,0.703,0.859,0.811,0.706
NCI-H2347,0.373,0.503,0.386,0.425,0.223,0.801,0.58,0.509,0.519,0.437,0.719,0.733,0.687,0.794,0.636,1.11,0.928,1.25,1.06,1.08
NCI-H2405,0.694,0.628,0.686,0.623,0.636,0.731,0.723,0.708,0.639,0.68,0.855,0.682,0.758,0.671,0.639,0.8,0.845,0.711,0.79,0.831
NCI-H3122,1.06,0.953,0.858,0.828,0.678,0.436,0.391,0.412,0.352,0.293,1.05,1.04,0.98,0.973,1.05,0.832,0.762,0.874,0.795,0.793
PC-3 [JPC-3],0.776,0.83,0.734,0.822,0.767,0.899,0.821,0.914,0.848,0.833,0.883,0.623,0.829,0.728,0.591,1.08,0.98,1.13,1.07,1.03
PC-14,0.882,0.819,0.979,0.759,0.388,0.604,0.524,0.514,0.481,0.414,0.388,0.298,0.239,0.399,0.287,1.05,0.756,1.14,0.968,0.562
RERF-LC-KJ,0.596,0.639,0.566,0.604,0.52,0.512,0.506,0.561,0.456,0.32,1.09,0.934,0.828,0.942,0.838,0.912,0.824,0.925,0.813,0.698

# From the supplement of paper PMC10307832
